Tests used:
[1] = Cytotoxicity against human HuH6 cells after 3 days by MTT assay; format: cell-based
Hepatitis C virus [2] = experiment: Antiviral activity against Hepatitis C virus genotype 1b infected in human Huh-9-13 cells assessed as reduction in replicon RNA after 4days by RT-qPCR analysis; format: functional, organism-based, Hepacivirus hominis; details: 96 h
[3] = Cytotoxicity against human Huh-9-13 cells after 3 days by MTT assay; format: cell-based
[4] = Cytotoxicity against human Huh-Mono cells after 3 days by MTT assay; format: cell-based
Hepatitis C virus [5] = experiment: Antiviral activity against Hepatitis C virus genotype 1b infected in human Huh-Mono cells assessed as reduction in replicon RNA after 4 days by RT-qPCR analysis; format: functional, organism-based, Hepacivirus hominis; details: 96 h
Hepatitis C virus [6] = experiment: Antiviral activity against Hepatitis C virus genotype 1b infected in human Huh5-2 cells assessed as reduction in replicon RNA after 4 days by luciferase assay; format: functional, organism-based, Hepacivirus hominis; details: Huh-5-2, 96 h
[7] = Cytotoxicity against human Huh5-2 cells after 3 days by MTT assay; format: cell-based, Huh-5-2
Hepatitis C virus [8] = experiment: Antiviral activity against Hepatitis C virus genotype 1b infected in human HuH6 cells assessed as reduction in replicon RNA after 4days by RT-qPCR analysis; format: functional, organism-based, Hepacivirus hominis; details: HuH-6, 96 h

EC50 (Hepatitis C virus [2]) [µM] | EC50 (Hepatitis C virus [5]) [µM] | EC50 (Hepatitis C virus [6]) [µM] | EC50 (Hepatitis C virus [8]) [µM] | Structure (SMILES) | CC50 at 72 h [1] [µM] | CC50 at 72 h [3] [µM] | CC50 at 72 h [4] [µM] | CC50 at 72 h [7] [µM]
0.6 | 1 | 1 | 1 | CCC[C@H](NC(=O)[C@@H]1[C@H]2CCC[C@H]2CN1C(=O)[C@@H](NC(=O)[C@@H](NC(=O)c1cnccn1)C1CCCCC1)C(C)(C)C)C(=O)C(=O)NC1CC1 | 25 | 24 | > 33 | > 33
0.4 | 1.7 | 0.12 | 0.29 | C[C@@]1(O)[C@H](O)[C@@H](CO)O[C@H]1n1cnc2c(N)ncnc21 | > 33 | 21 | > 33 | > 33
1.6 | 2.2 | 1.4 | 6 | [N-]=[N+]=N[C@]1(CO)O[C@@H](n2ccc(N)nc2=O)[C@H](O)[C@@H]1O [4'-AZIDOCYTIDINE] | > 33 | > 33 | > 33 | > 33
0.5 | 0.3 | 0.3 | 0.24 | C/C=C/C[C@@H](C)[C@@H](O)[C@H]1C(=O)N[C@@H](CC)C(=O)N(C)CC(=O)N(C)[C@@H](CC(C)C)C(=O)N[C@@H](C(C)C)C(=O)N(C)[C@@H](CC(C)C)C(=O)N[C@@H](C)C(=O)N[C@H](C)C(=O)N(C)[C@@H](CC(C)C)C(=O)N(C)[C@@H](CC(C)C)C(=O)N(C)[C@@H](C(C)C)C(=O)N1C [CYCLOSPORINE] | – | – | – | –
1.7 | 5 | 2.1 | 1.1 | C[C@@]1(F)[C@H](O)[C@@H](CO)O[C@@H]1n1ccc(N)nc1=O | > 33 | > 33 | > 33 | > 33
– | – | – | – | O=C(O)c1cccs1 [THIOPHENE CARBOXYLIC ACID] | > 33 | > 33 | > 33 | > 33
0.4 | 0.7 | 2 | 0.7 | C[C@@]1(O)[C@H](O)[C@@H](CO)O[C@H]1n1ccc(N)nc1=O | > 33 | 25 | > 33 | > 33
0.6 | 1.8 | 1.8 | 11.3 | CC(C)CCn1c(=O)c(C2=NS(=O)(=O)c3ccccc3N2)c(O)c2ccccc21 | > 33 | > 33 | > 33 | > 33
0.13 | 2 | – | – | CC(C)(C)NC(=O)N[C@H](C(=O)N1C[C@H]2[C@@H]([C@H]1C(=O)NC(CC1CCC1)C(=O)C(N)=O)C2(C)C)C(C)(C)C (some centres undefined) [BOCEPREVIR] | > 33 | > 33 | > 33 | > 33
1.5 | 0.8 | 1.1 | 1.2 | O=C(O)CNc1ccc(-c2ccc(Cl)cc2)c(COc2ccc(-c3nc4cc(C(=O)O)ccc4n3C3CCCCC3)cc2)c1 | 21 | 24 | 24 | 21.5

Structure (SMILES) | EC50 (Hepatitis C virus [2]) [µM] | EC50 (Hepatitis C virus [5]) [µM] | EC50 (Hepatitis C virus [6]) [µM] | EC50 (Hepatitis C virus [8]) [µM] | CC50 at 72 h [1] [µM] | CC50 at 72 h [3] [µM] | CC50 at 72 h [4] [µM] | CC50 at 72 h [7] [µM]
COc1ccc2c(O[C@@H]3C[C@H]4C(=O)N[C@]5(C(=O)O)C[C@H]5/C=C\CCCCC[C@H](NC(=O)OC5CCCC5)C(=O)N4C3)cc(-c3csc(NC(C)C)n3)nc2c1 | 0.015 | 0.01 | 0.04 | 0.004 | > 3 | > 3 | > 3 | > 3
C/C=C/C[C@@H](C)[C@@H](O)[C@H]1C(=O)N[C@@H](CC)C(=O)N(C)[C@H](C)C(=O)N(CC)[C@@H](C(C)C)C(=O)N[C@@H](C(C)C)C(=O)N(C)[C@@H](CC(C)C)C(=O)N[C@@H](C)C(=O)N[C@H](C)C(=O)N(C)[C@@H](CC(C)C)C(=O)N(C)[C@@H](CC(C)C)C(=O)N(C)[C@@H](C(C)C)C(=O)N1C [ALISPORIVIR] | – | 0.04 | 0.06 | 0.05 | > 3 | > 3 | > 3 | > 3
OC[C@H]1O[C@@H](n2nnc3cc(Cl)c(Cl)cc32)[C@H](O)[C@@H]1O | 34 | 53 | 10 | 12 | > 100 | > 100 | > 100 | > 100
CNC(=O)c1c(-c2ccc(F)cc2)oc2cc(N(CCO)S(C)(=O)=O)c(C3CC3)cc12 [NESBUVIR] | 0.03 | 0.004 | 0.019 | 0.02 | > 33 | > 33 | > 33 | > 33
Brc1c(Br)c(Br)c2[nH]nnc2c1Br [TETRABROMOBENZOTRIAZOLE] | 65 | 61 | 40 | 43 | > 100 | > 100 | > 100 | > 100

Source: ChEMBL document CHEMBL1671625, “Comparative in vitro anti-hepatitis C virus activities of a selected series of polymerase, protease, and helicase inhibitors” (Antimicrob Agents Chemother, 2008)
